Legend:
[1] = system: Rat Pancreatic Acinar Carcinoma (CA20948); experiment: In vivo fluorescence imaging of rat pancreatic acinar carcinoma (CA20948) expressing the SST-2 receptor; design: species or system Lewis rat; settings: for fluorescence in tumored rats at 45 minutes: 45 minutes post injection (FIGS. 2A-B)
From the text: (§1) A non-invasive in vivo fluorescence imaging apparatus was employed to assess the efficacy of contrast agents developed for tumor detection in animal models. A LaserMax Inc. laser diode of nominal wavelength 780 nm and nominal power of 40 mW was used. The detector was a Princeton Instruments model RTE/CCD-1317-K/2 CCD camera with a Rodenstock 10 mm F2 lens (stock #542.032.002.20) attached. An 830 nm interference […] (CVI Laser Corp., part # F10-830-4-2) was mounted in front of the CCD input lens such that only emitted fluorescent light from the contrast agent was imaged. Typically, an image of the animal was taken pre-injection of contrast agent. This image was subsequently subtracted (pixel by pixel) from the post injection images. However, the background subtraction was […] done once the animal had been removed from the sample area and returned at a later time for images taken several hours post injection.
(§2) The animals were anesthetized with rat cocktail (xylazine; ketamine; acepromazine 1.5: 1.5: 0.5) at 0.8 mL/kg via intramuscular injection. The area of the tumor (left flank) was shaved to expose tumor and surrounding surface area. A 21 gauge butterfly equipped with a stopcock and two syringes containing heparinized saline was placed into the later tail vein of the rat. Patency of the vein was checked prior to administration of the ICG via the butterfly apparatus. Each animal received 500 μL of a 0.42 mg/mL solution of ICG in water.
The imaging apparatus and the procedure used are described in Example 9. Rat pancreatic acinar carcinoma expressing the SST-2 receptor (CA20948) were induced by solid implant technique in the left flank area and palpable masses were detected 9 days post implant.
The imaging apparatus and the procedure used are described in Example 9 except that each animal received 500 μL of a 1.0 mg/mL solution of Cytate 1 solution of 25% dimethylsulfoxide in water. Rat pancreatic acinar carcinoma expressing the SST-2 receptor (CA20948) were induced by solid implant technique in the left flank area and palpable masses were detected 24 days post implant. Images were obtained at various times post injection. […] FIGS. 2A-B show a comparison of the uptake of ICG and Cytate 1 at 45 minutes in rats with the CA20948 tumor cell line.
Cytate 1 was evaluated in the CA20948 Lewis rat model. […] As a control, the organs were imaged again (FIG. 4A) and the image was compared with that of the same tissues in the uninjected rat (FIG. 4B).

[2] = system: Rat Pancreatic Acinar Carcinoma (CA20948); experiment: Imaging of individual organs removed from rat with CA20948 tumor; type: in vivo; settings: about 24 hours after injection (FIG. 5)
Experimental: FIG. 5 is an image of individual organs taken from a rat with pancreatic acinar carcinoma (CA20948) about 24 hours after injection with Cytate 1.
as §1
Individual organs were removed and imaged. […] This correlates very nicely with radiolabeled Octreotate in the same model system (see de Jong et al., 1998).

[3] = Blood clearance profile of peptide-dye conjugates monitored at the rat ear; type: in vivo, Sprague-Dawley or Fischer 344 rats; settings: bolus injection in the lateral tail vein, 0.5 to 2.0 mL
From the text: A laser of appropriate wavelength for excitation of the dye chromophore was directed into one end of a fiber optic bundle and the other end was positioned a few millimeters from the ear of a rat. A second fiber optic bundle was also positioned near the same ear to detect the emitted fluorescent light and the other end was directed into the optics and electronics for data collection. An interference filter (IF) in the collection optics train was used to select emitted fluorescent light of the appropriate wavelength for the dye chromophore.
Sprague-Dawley or Fischer 344 rats were used in these studies. The animals were anesthetized with urethane administered via intraperitoneal injection at a dose of 1.35 g/kg body weight. After the animals had achieved the desired plane of anesthesia, a 21 gauge butterfly with 12" tubing was placed in the lateral tail vein of each animal and flushed with heparinized saline. The animals were placed onto a heating pad and kept warm throughout the entire study. The lobe of the left ear was affixed to a glass microscope slide to reduce movement and vibration.
Incident laser light delivered from the fiber optic was centered on the affixed ear. Data acquisition was then initiated, and a background reading of fluorescence was obtained prior to administration of the test agent. For Cytates 1 or 2, the peptide-dye conjugate was administered to the animal through a bolus injection in the lateral tail vein, typically of 0.5 to 2.0 mL.
This procedure was repeated with several dye-peptide conjugates in normal and tumored rats and representative profiles are shown in FIGS. 6 to 10.

[4] = system: Prostatic Carcinoma (R3327-H); experiment: In vivo fluorescence imaging of prostatic carcinoma (R3327-H) in rats; design: species or system young male Copenhagen rats; settings: Dunning R3327-H
From the text: as §1
as §2, with “Each animal received 500 μL of a 0.42 mg/mL solution of ICG in water.” left out

[5] = system: pancreatic ductal adenocarcinoma (DSL 6A); experiment: In vivo fluorescence imaging of pancreatic ductal adenocarcinoma (DSL 6A) in rats; design: species or system male Lewis rats
From the text: as §1
DSL 6A tumors were induced in male Lewis rats in the left flank area by the introduction of material from a solid (donor) implant and the tumors were palpable in approximately 14 days.
The animals were anesthetized with rat cocktail (xylazine; ketamine; acepromazine 1.5: 1.5: 0.5) at 0.8 mL/kg via intramuscular injection. The area of the tumor (left flank) was shaved to expose tumor and surrounding surface area. […]

[6] = system: somatostatin (SST-2) receptors; settings: cited from earlier work

Structure (SMILES): C[C@@H](O)[C@H](NC(=O)[C@@H]1CSSC[C@H](NC(=O)[C@@H](Cc2ccccc2)NC(=O)CC[N+]2=C(/C=C/C=C/C=C/C=C3/N(CCC(=O)O)c4ccc5ccccc5c4C3(C)C)C(C)(C)c3c2ccc2ccccc32)C(=O)N[C@@H](Cc2ccc(O)cc2)C(=O)N[C@H](Cc2c[nH]c3ccccc23)C(=O)N[C@@H](CCCCN)C(=O)N[C@@H]([C@@H](C)O)C(=O)N1)C(=O)O [Cytate 1, monoOctreotate-Bisethylcarboxymethylindocyanine dye]
- uptake into the tumor ([1]; CA20948, 2 minutes post injection, 500 μL of 1.0 mg/mL in 25% dimethylsulfoxide in water): Uptake into the tumor was seen at 2 minutes
- fluorescence in tumored rats at 45 minutes ([1]; CA20948): still quite intense
- localization in the tumor ([1]; CA20948, 90 minutes post injection (FIG. 3A)): strong localization
- specificity for the SST-2 receptors ([1]; CA20948, 19 hours post injection): showing specificity of this agent for the SST-2 receptors
- tumor visualization ([1]; CA20948, 19 hours post injection (FIG. 3B)): tumor visualization was easily observed
- duration of dye fluorescence in the tumor ([1]; CA20948, post-injection): remained intense in the tumor for several hours post-injection
- uptake in heart, muscle, spleen and liver [2]: significantly less uptake
- uptake in pancreas, adrenals and tumor tissue [2]: High uptake
- decay of fluorescence signal (blood clearance) [3]: decayed as a function of time as the conjugate cleared from the bloodstream
- fluorescence signal after bolus injection (rise) [3]: rapidly increased to a peak value

Structure (SMILES): C[C@@H](O)[C@H](NC(=O)[C@@H]1CSSC[C@H](NC(=O)[C@@H](Cc2ccccc2)NC(=O)CCN2C(=CC=CC=CC=CC3=[N+](CCC(=O)N[C@H](Cc4ccccc4)C(=O)N[C@H]4CSSC[C@@H](C(=O)N[C@H](C(=O)O)[C@@H](C)O)NC(=O)[C@H]([C@@H](C)O)NC(=O)[C@H](CCCCN)NC(=O)[C@@H](Cc5c[nH]c6ccccc56)NC(=O)[C@H](Cc5ccc(O)cc5)NC4=O)c4ccc5ccccc5c4C3(C)C)C(C)(C)c3c2ccc2ccccc32)C(=O)N[C@@H](Cc2ccc(O)cc2)C(=O)N[C@H](Cc2c[nH]c3ccccc23)C(=O)N[C@@H](CCCCN)C(=O)N[C@@H]([C@@H](C)O)C(=O)N1)C(=O)O [Cytate 2, bisOctreotate-Bisethylcarboxymethylindocyanine dye]
- decay of fluorescence signal (blood clearance) [3]: decayed as a function of time as the conjugate cleared from the bloodstream
- fluorescence signal after bolus injection (rise) [3]: rapidly increased to a peak value

Structure (SMILES): CC1(C)C(/C=C/C=C/C=C/C=C2\N(CCCCS(=O)(=O)O)c3ccc4ccccc4c3C2(C)C)=[N+](CCCCS(=O)(=O)[O-])c2ccc3ccccc3c21 [ICG, indocyanine green]
- perfusion of the agent into the tumor ([1]; CA20948, 30 minutes post injection): only a slight but transient perfusion that was absent after only 30 minutes post injection
- fluorescence in tumored rats at 45 minutes ([1]; CA20948): mostly cleared
- non-specific localization ([1]; CA20948 compared to the other two tumor lines): no non-specific localization
- perfusion of the agent into the tumor [4]: slow perfusion of the agent over time into the tumor
- reasonable images obtained [4]: reasonable images were obtained
- reasonable images obtained [5]: reasonable images were obtained
- perfusion of the agent into the tumor ([5]; 500 μL of 0.42 mg/mL in water): slow perfusion of the agent over time into the tumor

Structure (SMILES): C[C@@H](O)[C@H](NC(=O)[C@@H]1CSSC[C@H](NC(=O)[C@H](N)Cc2ccccc2)C(=O)N[C@@H](Cc2ccc(O)cc2)C(=O)N[C@H](Cc2c[nH]c3ccccc23)C(=O)N[C@@H](CCCCN)C(=O)N[C@@H]([C@@H](C)O)C(=O)N1)C(=O)O [Octreotate, D-Phe-Cys'-Tyr-D-Trp-Lys-Thr-Cys'-Thr]
- targeting of somatostatin (SST-2) receptors [6]: known to target somatostatin (SST-2) receptors

Reference: patent US6217848A, “Cyanine and indocyanine dye bioconjugates for biomedical applications” (Mallinckrodt Inc., priority 1999, dated 2001)
